Reference: patent US9533990B2, “Inhibitors of secretion of hepatitis B virus antigens” (priority 2010, dated 2017)

melting point	Structure (SMILES)
213 to 215 °C	Fc1cccc(Cl)c1[C@@H]1C[C@H](c2ccc(-c3ccccc3)cc2)Nc2ncnn21 (relative stereo) [Example 31, cis-5-([1,1′-Biphenyl]-4-yl)-7-(2-chloro-6-fluorophenyl)-4,5,6,7-tetrahydro-[1,2,4]triazolo[1,5-a]pyrimidine]
224 to 225 °C	Fc1ccc([C@@H]2C[C@H](c3ccc(Cl)cc3)Nc3ncnn32)c(Cl)c1 (relative stereo) [Example 21, cis-7-(2-Chloro-4-fluorophenyl)-5-(4-chlorophenyl)-4,5,6,7-tetrahydro-[1,2,4]triazolo[1,5-a]pyrimidine]
220 to 221 °C	CCc1ccc(C2=CC(c3c(F)cccc3Cl)n3ncnc3N2)cc1 (centres unmarked) [Example 9, 7-(2-Chloro-6-fluorophenyl)-5-(4-ethylphenyl)-4,7-dihydro-[1,2,4]triazolo[1,5-a]pyrimidine]
203 to 204 °C	Fc1ccc(C2=CC(c3c(F)cccc3Cl)n3ncnc3N2)cc1 (centres unmarked) [Example 7, 7-(2-Chloro-6-fluorophenyl)-5-(4-fluorophenyl)-4,7-dihydro-[1,2,4]triazolo[1,5-a]pyrimidine]
271 to 272 °C	Fc1cccc(Cl)c1[C@@H]1C[C@H](c2ccccc2Cl)Nc2ncnn21 (relative stereo) [Example 25, cis-7-(2-Chloro-6-fluorophenyl)-5-(2-chlorophenyl)-4,5,6,7-tetrahydro-[1,2,4]triazolo[1,5-a]pyrimidine]
237 °C	Fc1cccc(Cl)c1C1C=C(c2ccc3ccccc3c2)Nc2ncnn21 (centres unmarked) [Example 12, 7-(2-Chloro-6-fluorophenyl)-5-(naphthalen-2-yl)-4,7-dihydro-[1,2,4]triazolo[1,5-a]pyrimidine]
194 to 195 °C	CC(C)c1ccc([C@@H]2C[C@H](c3ccc(Cl)cc3)Nc3ncnn32)cc1 (relative stereo) [Example 23, cis-5-(4-Chlorophenyl)-7-(4-isopropylphenyl)-4,5,6,7-tetrahydro[1,2,4]triazolo[1,5-a]pyrimidine]
192 to 193 °C	Fc1cccc(Cl)c1C1C=C(c2ccccc2Cl)Nc2ncnn21 (centres unmarked) [Example 5, 7-(2-Chloro-6-fluorophenyl)-5-(2-chlorophenyl)-4,7-dihydro-[1,2,4]triazolo[1,5-a]pyrimidine]
252 to 254 °C	Fc1cccc(Cl)c1[C@@H]1C[C@H](c2ccc(Cl)c(Cl)c2)Nc2ncnn21 (relative stereo) [Example 33, cis-7-(2-Chloro-6-fluorophenyl)-5-(3,4-dichlorophenyl)-4,5,6,7-tetrahydro-[1,2,4]triazolo[1,5-a]pyrimidine]
250 to 251 °C	Fc1ccc(C2C=C(c3ccc(Cl)cc3)Nc3ncnn32)c(Cl)c1 (centres unmarked) [Example 4, 7-(2-Chloro-4-fluorophenyl)-5-(4-chlorophenyl)-4,7-dihydro-[1,2,4]triazolo[1,5-a]pyrimidine]
242 to 243 °C	Fc1cccc(Cl)c1C1C=C(c2ccc(Br)cc2)Nc2ncnn21 (centres unmarked) [Example 8, 5-(4-Bromophenyl)-7-(2-chloro-6-fluorophenyl)-4,7-dihydro-[1,2,4]triazolo[1,5-a]pyrimidine]
217 to 218 °C	COc1ccc(C2=CC(c3c(F)cccc3Cl)n3ncnc3N2)cc1 (centres unmarked) [Example 10, 7-(2-Chloro-6-fluorophenyl)-5-(4-methoxyphenyl)-4,7-dihydro-[1,2,4]triazolo[1,5-a]pyrimidine]
221 to 222 °C	COc1ccc([C@H]2C[C@@H](c3c(F)cccc3Cl)n3ncnc3N2)cc1 (relative stereo) [Example 30, cis-7-(2-Chloro-6-fluorophenyl)-5-(4-methoxyphenyl)-4,5,6,7-tetrahydro-[1,2,4]triazolo[1,5-a]pyrimidine]
270 to 271 °C	Fc1cccc(Cl)c1[C@@H]1C[C@H](c2ccccc2)Nc2ncnn21 (relative stereo) [Example 37, cis-7-(2-Chloro-6-fluorophenyl)-5-phenyl-4,5,6,7-tetrahydro-[1,2,4]triazolo[1,5-a]pyrimidine]
225 °C	Fc1ccc([C@H]2C[C@@H](c3c(F)cccc3Cl)n3ncnc3N2)c(F)c1 (relative stereo) [Example 35, cis-7-(2-Chloro-6-fluorophenyl)-5-(2,4-difluorophenyl)-4,5,6,7-tetrahydro-[1,2,4]triazolo[1,5-a]pyrimidine]
246 to 247 °C	Clc1ccc([C@H]2C[C@@H](c3c(Cl)cccc3Cl)n3ncnc3N2)cc1 (relative stereo) [Example 19, cis-5-(4-Chlorophenyl)-7-(2,6-dichlorophenyl)-4,5,6,7-tetrahydro-[1,2,4]triazolo[1,5-a]pyrimidine]
235 °C	Clc1ccc(C2=CC(c3c(Cl)cccc3Cl)n3ncnc3N2)cc1 (centres unmarked) [Example 2, 5-(4-Chlorophenyl)-7-(2,6-dichlorophenyl)-4,7-dihydro-[1,2,4]triazolo[1,5-a]pyrimidine]
246 to 247 °C	Fc1cccc(Cl)c1C1C=C(c2ccc(Cl)c(Cl)c2)Nc2ncnn21 (centres unmarked) [Example 13, 7-(2-Chloro-6-fluorophenyl)-5-(3,4-dichlorophenyl)-4,7-dihydro-[1,2,4]triazolo[1,5-a]pyrimidine]

melting point	Structure (SMILES)
223 °C	Cc1ccc([C@H]2C[C@@H](c3c(F)cccc3Cl)n3ncnc3N2)cc1C (relative stereo) [Example 36, cis-7-(2-Chloro-6-fluorophenyl)-5-(3,4-dimethylphenyl)-4,5,6,7-tetrahydro-[1,2,4]triazolo[1,5-a]pyrimidine]
246 to 247 °C	Fc1cccc(Cl)c1[C@@H]1C[C@H](c2ccc(Br)cc2)Nc2ncnn21 (relative stereo) [Example 28, cis-5-(4-Bromophenyl)-7-(2-chloro-6-fluorophenyl)-4,5,6,7-tetrahydro-[1,2,4]triazolo[1,5-a]pyrimidine]
267 °C	Fc1cccc(Cl)c1C1C=C(c2ccc(-c3ccccc3)cc2)Nc2ncnn21 (centres unmarked) [Example 11, 5-([1,1′-Biphenyl]-4-yl)-7-(2-chloro-6-fluorophenyl)-4,7-dihydro-[1,2,4]triazolo[1,5-a]pyrimidine]
224 to 225 °C	Fc1cccc(Cl)c1[C@@H]1C[C@H](c2ccc3ccccc3c2)Nc2ncnn21 (relative stereo) [Example 32, cis-7-(2-Chloro-6-fluorophenyl)-5-(naphthalen-2-yl)-4,5,6,7-tetrahydro-[1,2,4]triazolo[1,5-a]pyrimidine]
213 to 215 °C	Fc1cccc(Cl)c1C1C=C(c2ccc(Cl)cc2)Nc2ncnn21 (centres unmarked) [Example 1, 7-(2-Chloro-6-fluorophenyl)-5-(4-chlorophenyl)-4,7-dihydro-[1,2,4]triazolo[1,5-a]pyrimidine]
246 to 248 °C	Fc1cccc(Cl)c1C1C=C(c2cccc(Cl)c2)Nc2ncnn21 (centres unmarked) [Example 6, 7-(2-Chloro-6-fluorophenyl)-5-(3-chlorophenyl)-4,7-dihydro-[1,2,4]triazolo[1,5-a]pyrimidine]
217 to 218 °C	Cc1ccc(C2=CC(c3c(F)cccc3Cl)n3ncnc3N2)cc1C (centres unmarked) [Example 16, 7-(2-Chloro-6-fluorophenyl)-5-(3,4-dimethylphenyl)-4,7-dihydro-[1,2,4]triazolo[1,5-a]pyrimidine]
186 to 188 °C	Fc1ccc(C2=CC(c3c(F)cccc3Cl)n3ncnc3N2)c(F)c1 (centres unmarked) [Example 15, 7-(2-Chloro-6-fluorophenyl)-5-(2,4-difluorophenyl)-4,7-dihydro-[1,2,4]triazolo[1,5-a]pyrimidine]
210 to 212 °C	Clc1ccc([C@H]2C[C@@H](c3ccccc3)n3ncnc3N2)cc1 (relative stereo) [Example 24, cis-5-(4-Chlorophenyl)-7-phenyl-4,5,6,7-tetrahydro-[1,2,4]triazolo[1,5-a]pyrimidine]
202 to 204 °C	Clc1ccc([C@H]2C[C@@H](c3ccccc3Cl)n3ncnc3N2)cc1 (relative stereo) [Example 22, cis-7-(2-Chlorophenyl)-5-(4-chlorophenyl)-4,5,6,7-tetrahydro[1,2,4]triazolo[1,5-a]pyrimidine]
230 to 231 °C	CCc1ccc([C@H]2C[C@@H](c3c(F)cccc3Cl)n3ncnc3N2)cc1 (relative stereo) [Example 29, cis-7-(2-Chloro-6-fluorophenyl)-5-(4-ethylphenyl)-4,5,6,7-tetrahydro-[1,2,4]triazolo[1,5-a]pyrimidine]
267 to 269 °C	Fc1cccc(Cl)c1[C@@H]1C[C@H](c2ccc(Cl)cc2Cl)Nc2ncnn21 (relative stereo) [Example 34, cis-7-(2-Chloro-6-fluorophenyl)-5-(2,4-dichlorophenyl)-4,5,6,7-tetrahydro-[1,2,4]triazolo[1,5-a]pyrimidine]
238 to 239 °C	Fc1cccc(Cl)c1-c1cc(-c2ccc(Cl)cc2)nc2ncnn12 [Example 17, 7-(2-Chloro-6-fluorophenyl)-5-(4-chlorophenyl)-[1,2,4]triazolo[1,5-a]pyrimidine]
262 to 263 °C	Fc1cccc(Cl)c1[C@@H]1C[C@H](c2cccc(Cl)c2)Nc2ncnn21 (relative stereo) [Example 26, cis-7-(2-Chloro-6-fluorophenyl)-5-(3-chlorophenyl)-4,5,6,7-tetrahydro-[1,2,4]triazolo[1,5-a]pyrimidine]
209 to 211 °C	Fc1cccc(Cl)c1C1C=C(c2ccc(Cl)cc2Cl)Nc2ncnn21 (centres unmarked) [Example 14, 7-(2-Chloro-6-fluorophenyl)-5-(2,4-dichlorophenyl)-4,7-dihydro-[1,2,4]triazolo[1,5-a]pyrimidine]
240 to 241 °C	Fc1ccc([C@H]2C[C@@H](c3c(F)cccc3Cl)n3ncnc3N2)cc1 (relative stereo) [Example 27, cis-7-(2-Chloro-6-fluorophenyl)-5-(4-fluorophenyl)-4,5,6,7-tetrahydro-[1,2,4]triazolo[1,5-a]pyrimidine]
232 °C	Fc1cccc(Cl)c1[C@@H]1C[C@H](c2ccccn2)Nc2ncnn21 (relative stereo) [Example 38, cis-7-(2-Chloro-6-fluorophenyl)-5-(pyridin-2-yl)-4,5,6,7-tetrahydro-[1,2,4]triazolo[1,5-a]pyrimidine]
